According to US5948792A, “Fluorine-containing 1,4-disubstituted piperidine derivatives” (Banyu Pharmaceutical Co., Ltd., priority 1996, dated 1999):

Columns and labels:
[1] = molecular target: T1, Muscarinic M3 receptor (Homo sapiens, UniProt P20309); assay: Inhibition of binding of [3H]-N-methylscopolamine to muscarinic M3 receptor; details: for Ki: CHO cell membranes expressing cloned human receptor, 0.2 nM [3H]-N-methylscopolamine, pH 7.4, 2 hours, 25° C, read-out: Ki M3 (inhibitory effects on binding to muscarinic M3 receptor); for M2/M3 (ratio of binding Ki): selectivity ratio of Ki values
T1 construct: purchased Receptor Biology, Inc; host or cells: CHO cells (membranes)
T1 sequence (P20309 whole entry): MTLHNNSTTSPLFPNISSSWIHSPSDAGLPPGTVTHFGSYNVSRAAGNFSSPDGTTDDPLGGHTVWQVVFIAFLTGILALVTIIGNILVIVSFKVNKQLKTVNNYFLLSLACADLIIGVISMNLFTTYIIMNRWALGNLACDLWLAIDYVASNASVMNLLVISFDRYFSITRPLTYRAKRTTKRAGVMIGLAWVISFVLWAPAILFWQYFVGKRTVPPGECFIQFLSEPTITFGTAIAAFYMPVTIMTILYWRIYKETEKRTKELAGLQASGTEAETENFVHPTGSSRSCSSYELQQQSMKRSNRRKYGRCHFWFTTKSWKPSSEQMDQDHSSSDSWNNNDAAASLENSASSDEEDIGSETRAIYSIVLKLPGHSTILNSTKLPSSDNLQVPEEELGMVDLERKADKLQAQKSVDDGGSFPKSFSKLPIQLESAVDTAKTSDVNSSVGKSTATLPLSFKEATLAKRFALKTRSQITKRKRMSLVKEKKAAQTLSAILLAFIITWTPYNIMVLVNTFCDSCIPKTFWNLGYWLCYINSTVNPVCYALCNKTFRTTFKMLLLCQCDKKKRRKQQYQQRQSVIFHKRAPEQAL
Description: (§1) Tests on Inhibition of Binding to Muscarinic Receptors
(§2) These tests were performed according to a modification of the method of Hargreaves et al. (Br. J. Pharmacol. 107: 494-501, 1992). Membranes from CHO cells expressing cloned human m1-m5 (Receptor Biology, Inc.) were incubated with 0.2 nM [^3 H]-N-methylscopolamine and each a compound of the present invention to be tested in 0.5 ml of 50 mM Tris-HCl-10 mM MgCl2 -1 mM EDTA (pH 7.4) for 2 hours at 25° C. Free and membrane-bound [^3 H]-N-methylscopolamine were separated by filtration over glass filters (UniFilter-GF/C; Packard Instruments Co., Inc.) using cell harvester (Filtermate™ 196; Packard Instruments Co., Inc.). Then the filter was washed four times with 1 ml of ice-cold Tris-HCl (pH 7.4) and dried at 50° C. After adding a scintillator (Microscinti 0; Packard Instruments Co., Inc.), the radioactivity was counted by a liquid scintillation counter (TopCount™; Packard Instruments Co., Inc.). Non-specific binding was measured in the presence of 1 μM N-methylscopolamine.

[2] = molecular target: T2, Muscarinic M2 receptor (Homo sapiens, UniProt P08172); assay: Inhibition of binding of [3H]-N-methylscopolamine to muscarinic M2 receptor; details: CHO cell membranes expressing cloned human receptor; 0.2 nM [3H]-N-methylscopolamine, pH 7.4, 2 hours, 25° C; read-out: Ki M2 (inhibitory effects on binding to muscarinic M2 receptor)
T2 construct: purchased Receptor Biology, Inc; host or cells: CHO cells (membranes)
T2 sequence (P08172 1-466): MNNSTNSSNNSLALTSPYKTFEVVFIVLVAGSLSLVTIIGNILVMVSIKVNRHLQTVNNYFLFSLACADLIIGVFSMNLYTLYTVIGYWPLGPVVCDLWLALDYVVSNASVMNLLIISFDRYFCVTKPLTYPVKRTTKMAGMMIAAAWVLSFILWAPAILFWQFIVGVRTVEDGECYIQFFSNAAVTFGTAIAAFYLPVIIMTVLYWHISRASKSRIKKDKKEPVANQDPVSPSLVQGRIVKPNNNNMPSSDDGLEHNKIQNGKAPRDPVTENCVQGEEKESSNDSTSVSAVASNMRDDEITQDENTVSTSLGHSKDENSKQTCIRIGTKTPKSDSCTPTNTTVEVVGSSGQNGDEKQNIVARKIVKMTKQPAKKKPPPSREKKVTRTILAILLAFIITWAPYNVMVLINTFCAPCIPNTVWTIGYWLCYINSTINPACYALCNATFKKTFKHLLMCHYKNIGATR
Description: as §1, §2

[3] = molecular target: T3, Muscarinic M3 Receptor (Rattus norvegicus, UniProt P08483); assay: Bronchodilation in rats (i.v.), inhibition of acetylcholine-induced increase in airway resistance; type: in vivo; details: iv, 5 min, acetylcholine 50 μg/kg i.v. 5 minutes after test compound, read-out: Inhibition of Airway Contraction ED50 iv
T3 construct: male rats of the Sprague-Dawley strain; from tissue; host or cells: airways of living male Sprague-Dawley rats (in vivo)
T3 sequence (P08483 whole entry): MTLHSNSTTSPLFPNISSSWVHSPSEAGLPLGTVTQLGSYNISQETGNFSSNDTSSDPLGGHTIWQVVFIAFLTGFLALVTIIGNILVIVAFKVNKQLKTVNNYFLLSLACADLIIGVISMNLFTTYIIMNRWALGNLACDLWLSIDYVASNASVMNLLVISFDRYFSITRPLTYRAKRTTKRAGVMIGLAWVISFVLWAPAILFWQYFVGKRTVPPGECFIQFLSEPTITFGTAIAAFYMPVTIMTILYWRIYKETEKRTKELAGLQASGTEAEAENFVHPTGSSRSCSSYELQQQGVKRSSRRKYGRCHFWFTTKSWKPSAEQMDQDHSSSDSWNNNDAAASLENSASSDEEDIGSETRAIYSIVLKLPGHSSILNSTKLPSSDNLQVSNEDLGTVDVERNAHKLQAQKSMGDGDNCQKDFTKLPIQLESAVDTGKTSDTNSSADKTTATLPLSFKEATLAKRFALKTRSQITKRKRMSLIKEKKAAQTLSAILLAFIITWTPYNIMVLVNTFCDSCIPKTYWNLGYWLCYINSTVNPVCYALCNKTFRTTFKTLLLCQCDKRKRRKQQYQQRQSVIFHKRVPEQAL
Description: Tests for Antagonism Against Muscarinic M3 Receptor (in vivo)
1-A) Tests for Bronchodilation in Rats (i.v.).
Eight- to eleven-weeks-old male rats of the Sprague-Dawley strain, weighing 380-420 g, were anesthetized with urethane (750 mg/kg. i.p.) and α-chloralose (37.5 mg/kg, i.p.). The bronchus of each rat was intubated, and the right jugular vein was cannulated for drug administration. […] To evoke an increase in airway resistance, acetylcholine (50 μg/kg, i.v.) was administered to the animals. The acetylcholine-induced airway resistance increase was measured 5 minutes before and 5 minutes after administration of test compound, and the ratio of the airway resistance of the latter to the former was calculated. In controls, isotonic sodium chloride solution was used in place of the test compounds and otherwise identical procedures were repeated, the calculated ratio being set to be 100%.

[4] = molecular target: T4, airway M3 receptor (Rattus norvegicus, UniProt P08483); assay: Antagonism to the airway M3 receptor in an isolated rat trachea (in vitro); type: cell-based
T4 construct: the trachea was isolated; from tissue; host or cells: isolated trachea of male SD strain rat
T4 sequence (P08483 whole entry): as above
Description: (§3) Tests for Antagonism to Muscarinic Receptors (in vitro)
2) Tests for Antagonism to the Airway M3 Receptor in an Isolated Rat Trachea
These tests were performed according to a conventional method. A male SD strain rat (weighing 300-500 g) was killed by exsanguination, and the trachea was isolated. Annular segments (2 mm wide) were cut out from the trachea and cut transversely at the anterior cartilage part to make open ring preparation. A preparation was suspended in a Magnus tube filled with 5 ml of Krebs-Henseleit solution (gassed with 95% O2 -5% CO2 and kept at 32° C.) with an initial tension of 1.0 g and a resting tension of 0.6 g. The tension of the preparation was recorded isometrically. After being equilibrated for an hour, the preparation was made to contract twice by treatment with 10^-4 M carbachol, and the second contraction induced by carbachol was used as the reference contraction. After the preparation was washed with fresh solution to be restored to the base line, a test compound was administered thereto (or no treatment was given). Ten minutes later, carbachol (10^-8 to 10^-3 M) was cumulatively administered in three-fold increasing doses to obtain a dose-response curve. The dose-response curve was plotted by expressing responses as percentages based on the reference contraction of the preparation as 100%. The antagonistic potency (K^B value) of the test compound was determined from the degree of shift of the dose-response curve obtained by treatment with the test compound.

[5] = molecular target: T5, M2 receptor (Rattus norvegicus, UniProt P10980); assay: Antagonism to M2 receptor in an isolated rat right atrium (in vitro); type: cell-based; details: carbachol-induced decrease in heart rate
T5 construct: the right atrium was isolated; from tissue; host or cells: isolated right atrium of male SD strain rat
T5 sequence (P10980 1-466): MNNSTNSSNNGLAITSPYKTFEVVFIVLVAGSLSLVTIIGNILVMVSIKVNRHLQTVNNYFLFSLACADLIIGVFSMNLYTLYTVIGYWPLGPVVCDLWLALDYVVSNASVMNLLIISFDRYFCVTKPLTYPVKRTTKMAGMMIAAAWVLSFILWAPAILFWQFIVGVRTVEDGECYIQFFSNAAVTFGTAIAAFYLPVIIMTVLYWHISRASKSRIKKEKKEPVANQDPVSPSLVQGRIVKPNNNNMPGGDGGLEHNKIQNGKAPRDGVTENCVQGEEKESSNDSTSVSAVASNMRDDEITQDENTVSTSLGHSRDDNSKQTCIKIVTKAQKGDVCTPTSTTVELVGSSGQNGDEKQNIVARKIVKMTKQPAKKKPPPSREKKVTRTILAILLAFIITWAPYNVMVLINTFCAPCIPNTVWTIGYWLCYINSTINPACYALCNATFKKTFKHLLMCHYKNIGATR
Description: as §3
1) Tests for Antagonism to M2 receptor in an Isolated Rat Right Atrium
These tests were performed according to a conventional method. A male SD strain rat (weighing 300-500 g) was killed by exsanguination, and the right atrium was isolated. This preparation was isometrically suspended in organ bath filled with 20 ml of Krebs-Henseleit solution (gassed with 95% O2 -5% CO2 and kept at 32° C.) with an initial tension of 0.5 g. The heart rate was recorded with a heart rate counter. After the preparation was equilibrated for 30 minutes, carbachol (10^-9 to 10^-6 M) was cumulatively administered in three-fold increasing doses. Thus, a decrease in heart rate was measured to obtain a dose-response curve for the control experiment. After the preparation was washed with fresh solution to restore the heart rate, a test compound was administered thereto. Ten minutes later, carbachol was cumulatively administered again. Responses to carbachol were expressed as percentages based on the heart rate before administration of carbachol as 100%. The antagonistic potency (KB value) of the test compound was determined from the degree of shift of the dose-response curve obtained by treatment with individual test compound of the present invention.

Row | Compound | Ki [1] [µM] | M2/M3 (ratio of binding Ki) [1] | Ki [2] [µM] | ED50 [3] [mg/kg] | Kb ([4]; isolated rat trachea, carbachol-induced contraction) [µM] | M2/M3 (ratio of KB) ([4]; selectivity ratio of KB values, right atrium M2 / trachea M3) | Kb [5] [µM]
1 | COc1cc(N)cc(CN2CCC(NC(=O)[C@](O)(c3ccccc3)[C@@H]3CCC(F)(F)C3)CC2)c1.Cl.Cl [Example 31, (2R)-N-[1-(3-amino-5-methoxybenzyl)piperidin-4-yl]-2-[(1R)-3,3-difluorocyclopentyl]-2-hydroxy-2-phenylacetamide dihydrochloride] | 0.019 | 520 | 10 | – | – | – | –
2 | O=C(NC1CCN(Cc2ccccn2)CC1)[C@](O)(c1ccccc1)[C@@H]1CCC(F)(F)C1 [Example 14, (2R)-N-[1-(2-pyridylmethyl)piperidin-4-yl]-2-[(1R)-3,3-difluorocyclopentyl]-2-hydroxy-2-phenylacetamide] | 0.01 | 140 | 1.4 | – | – | – | –
3 | CN1C2CCC1CC(OC(=O)C(CO)c1ccccc1)C2 (stereo not shown) [atoropine, reference compound] | – | – | – | 0.0043 | – | – | –
4 | Cc1cccc(CN2CCC(NC(=O)[C@](O)(c3ccccc3)[C@@H]3CCC(F)(F)C3)CC2)n1 [Example 10, (2R)-N-[1-(6-methylpyridin-2-ylmethyl)piperidin-4-yl]-2-[(1R)-3,3-difluorocyclopentyl]-2-hydroxy-2-phenylacetamide] | 0.0089 | 1900 | 17 | – | – | – | –
5 | O=C(NC1CCN(Cc2ccoc2)CC1)[C@](O)(c1ccccc1)[C@@H]1CCC(F)(F)C1 [Example 12, (2R)-N-[1-(3-furylmethyl)piperidin-4-yl]-2-[(1R)-3,3-difluorocyclopentyl]-2-hydroxy-2-phenylacetamide] | – | – | 8.6 | – | – | – | –
6 | COc1cccc(CN2CCC(NC(=O)[C@](O)(c3ccccc3)[C@@H]3CCC(F)(F)C3)CC2)c1 [Example 15, (2R)-N-[1-(3-methoxybenzyl)piperidin-4-yl]-2-[(1R)-3,3-difluorocyclopentyl]-2hydroxy-2-phenylacetamide] | – | – | 1 | – | – | – | –
7 | Cc1cc(N)cc(CN2CCC(NC(=O)[C@](O)(c3ccccc3)[C@@H]3CCC(F)(F)C3)CC2)c1.Cl.Cl [Example 22, (2R)-N-[1-(3-amino-5-methylbenzyl)piperidin-4-yl]-2-[(1R)-3,3-difluorocyclopentyl]-2-hydroxy-2-phenylacetamide dihydrochloride] | 0.019 | 680 | 13 | – | – | – | –
8 | COc1cc(N)nc(CN2CCC(NC(=O)[C@](O)(c3ccccc3)[C@@H]3CCC(F)(F)C3)CC2)c1.Cl.Cl [Example 21, (2R)-N-[1-(6-amino-4-methoxypyridin-2-ylmethyl)piperidin-4-yl]-2-[(1R)-3,3-difluorocyclopentyl]-2-hydroxy-2-phenylacetamide dihydrochloride] | 0.022 | 2300 | 50 | – | – | – | –
9 | Nc1cc(N)cc(CN2CCC(NC(=O)[C@](O)(c3ccccc3)[C@@H]3CCC(F)(F)C3)CC2)c1 [Example 27, (2R)-N-[1-(3,5-diaminobenzyl)piperidin-4-yl]-2-[(1R)-3,3-difluorocyclopentyl]-2-hydroxy-2-phenylacetamide] | 0.02 | 210 | 4.2 | – | – | – | –
10 | CC(C)=CCCN1CCC(NC(=O)[C@](O)(c2ccccc2)[C@@H]2CCC(F)(F)C2)CC1 [Example 1, (2R)-N-[1-(4-methyl-3-pentenyl)piperidin-4-yl]-2-[(1R)-3,3-difluorocyclopentyl]-2-hydroxy-2-phenylacetamide] | 0.0055 | 590 | 3.2 | 0.033 | 0.0063 | 160 | 1
